In brackets after ≈: the same amount, converted by molar mass. Activity calls are given as the source filed them. The rule behind the calls is not given here.

In assay [1] the test system is Escherichia coli. The experiment in a line: Minimal inhibitory concentration against Escherichia coli; Not active. Format: functional, organism-based.
Assay [2] has as its system Bacillus cereus. Kind of assay: inhibition of Bacillus cereus was measured by zone diameter. Format: functional.
Assay [3] deals with Candida albicans. Kind of assay: Minimal inhibitory concentration against Candida albicans. Format: functional.
In assay [4] the test system is Candida albicans. The experiment in a line: inhibition of Candida albicans was measured by zone diameter. Format: functional.
Assay [5] concerns Pseudomonas aeruginosa. The experiment in a line: Minimal inhibitory concentration against Pseudomonas aeruginosa; Not active. Format: functional, organism-based.
Assay [6] has as its system Bacillus subtilis. The experiment in a line: Minimal inhibitory concentration against Bacillus subtilis. Format: functional.
Assay [7] concerns Bacillus cereus. The experiment in a line: Minimal inhibitory concentration against Bacillus cereus. Format: functional.
Assay [8] concerns Bacillus subtilis. Kind of assay: inhibition of Bacillus subtilis was measured by zone diameter. Format: functional.
For assay [9], the system named is Pseudomonas aeruginosa. The experiment in a line: Minimal inhibitory concentration against Pseudomonas aeruginosa. The format is functional.
The test system of assay [10] is Pseudomonas aeruginosa. The experiment in a line: inhibition of Pseudomonas aeruginosa was measured by zone diameter. The format is functional.
Assay [11] deals with Candida albicans. Kind of assay: Minimal inhibitory concentration against Candida albicans; Not active. Format: functional, organism-based.
The test system of assay [12] is Escherichia coli. Kind of assay: Diameter of the inhibition zone of Escherichia coli upon administration of compound. The format is functional.
The subject of assay [13] is Escherichia coli. The experiment in a line: Minimal inhibitory concentration against Escherichia coli. The format is functional.
The subject of assay [14] is Candida albicans. Kind of assay: Minimal inhibitory concentration against Candida albicans (CECT 1394) strain; Not active. The format is functional, organism-based.
For assay [15], the system named is Escherichia coli. Kind of assay: Minimal inhibitory concentration against Escherichia coli (CECT 101) strain; Not active. Format: functional, organism-based.
Assay [16] concerns Bacillus cereus. The experiment in a line: Minimal inhibitory concentration against Bacillus cereus (CECT 148) strain; Not active. Format: functional, organism-based.
Assay [17] relates to Bacillus subtilis. Kind of assay: Minimal inhibitory concentration against Bacillus subtilis (CECT 498) strain; Not active. The format is functional, organism-based.
Assay [18] relates to Pseudomonas aeruginosa. The experiment in a line: Minimal inhibitory concentration against Pseudomonas aeruginosa (CECT 108) strain; Not active. Format: functional, organism-based.
For assay [19], the system named is Escherichia coli. The experiment in a line: inhibition of Escherichia coli was measured by zone diameter. Format: functional.

`Cc1cc2c(C)c(C)sc2cc1N`: the MIC result in the assay on Escherichia coli [1] and in the assay with Pseudomonas aeruginosa [5] was “inactive” each time. The Inhibition with Bacillus cereus [2] came to 10 mm; with Candida albicans [4], 13 mm; in the assay on Bacillus subtilis [8], 17 mm. In addition, the MIC came to 1000 µg/mL (≈ 5230 µM) in the assay on Candida albicans [3], 500 µg/mL (≈ 2610 µM) in the assay on Bacillus subtilis [6] and 500 µg/mL (≈ 2610 µM) with Bacillus cereus [7].

As for `COc1ccc(Nc2cc3sc(C)c(C)c3cc2C)cc1OC`, in the assay with Escherichia coli [1], the MIC entry is “inactive”. In addition, the Inhibition came to 24 mm in the assay on Bacillus cereus [2], 8 mm with Candida albicans [4], 10 mm in the assay with Pseudomonas aeruginosa [10] and 10 mm in the assay with Bacillus subtilis [8]. The minimum inhibitory concentration (MIC) against Candida albicans [3] was determined as 25 µg/mL (≈ 76.3 µM); in the assay with Bacillus subtilis [6], 200 µg/mL (≈ 611 µM); against Bacillus cereus [7], 200 µg/mL (≈ 611 µM); with Pseudomonas aeruginosa [9], 1000 µg/mL (≈ 3050 µM).

Turning to `Cc1cc2c(C)c(C)sc2cc1Br`, the MIC result with Escherichia coli [1], in the assay with Pseudomonas aeruginosa [5] and with Candida albicans [11] was “inactive” in each case. In addition, the Inhibition came out at 12 mm with Bacillus cereus [2] and 18 mm in the assay on Bacillus subtilis [8]. For the same compound, the values for the minimal inhibitory concentration (MIC) against Bacillus subtilis [6] and against Bacillus cereus [7] were 500 µg/mL (≈ 1960 µM) and 1000 µg/mL (≈ 3920 µM), respectively.

Regarding `Cc1cc2c(C)c(C)sc2cc1Nc1ccccc1F`, the MIC result with Escherichia coli [1] was “inactive”. For the same compound, the Inhibition is reported as 9 mm with Bacillus cereus [2] and 8 mm in the assay with Bacillus subtilis [8]. Moreover, the MIC stood at 50 µg/mL (≈ 175 µM) in the assay with Bacillus subtilis [6] and 200 µg/mL (≈ 701 µM) in the assay with Bacillus cereus [7].

For the compound `Cc1cc2c(C)c(C)sc2cc1Nc1ccccc1`, the Inhibition with Bacillus cereus [2] is recorded as 18 mm; with Escherichia coli [12], 4 mm; in the assay with Pseudomonas aeruginosa [10], 16 mm; with Bacillus subtilis [8], 8 mm. Besides, the MIC with Bacillus subtilis [6], with Bacillus cereus [7], in the assay on Escherichia coli [13] and against Pseudomonas aeruginosa [9] was 200 µg/mL (≈ 748 µM) throughout.

On to `Cc1ccc2sc(C)c(C)c2c1`, for which the MIC entry in the assay with Candida albicans [14], in the assay on Escherichia coli [15], in the assay with Bacillus cereus [16], with Bacillus subtilis [17] and in the assay with Pseudomonas aeruginosa [18] was “inactive” each time.

Take `CC1(C)S[C@@H]2[C@H](NC(=O)[C@H](N)c3ccccc3)C(=O)N2[C@H]1C(=O)O` [AMPICILLIN]: the Inhibition was 13 mm in the assay on Bacillus cereus [2], 15 mm in the assay on Escherichia coli [19], 12 mm in the assay on Pseudomonas aeruginosa [10] and 10 mm with Bacillus subtilis [8]. For the same compound, the minimum inhibitory concentration (MIC) against Bacillus subtilis [6] stood at 12.5 µg/mL (≈ 35.8 µM); with Bacillus cereus [7], 3.13 µg/mL (≈ 8.96 µM); with Escherichia coli [13], 6.25 µg/mL (≈ 17.9 µM); with Pseudomonas aeruginosa [9], 6.25 µg/mL (≈ 17.9 µM).

Regarding `COc1ccc(Nc2cc3sc(C)c(C)c3cc2C)cc1`, the Inhibition with Bacillus cereus [2] is recorded as 4 mm; with Candida albicans [4] it was 6 mm; in the assay with Escherichia coli [12] it was 4 mm; with Pseudomonas aeruginosa [10] it was 8 mm; in the assay with Bacillus subtilis [8], 19 mm. In addition, the MIC turned out to be 12.5 µg/mL (≈ 42 µM) in the assay with Candida albicans [3]; 50 µg/mL (≈ 168 µM) against Bacillus subtilis [6]; 100 µg/mL (≈ 336 µM) in the assay with Bacillus cereus [7]; 1000 µg/mL (≈ 3360 µM) in the assay with Escherichia coli [13]; 1000 µg/mL (≈ 3360 µM) against Pseudomonas aeruginosa [9].

Consider `Cc1cc2c(C)c(C)sc2cc1Nc1ccc(F)cc1`, for which the MIC result in the assay with Escherichia coli [1] and in the assay on Pseudomonas aeruginosa [5] was “inactive” throughout. The Inhibition with Bacillus cereus [2] was found to be 12 mm; in the assay on Bacillus subtilis [8], 10 mm. Further, the MIC with Bacillus subtilis [6] and in the assay on Bacillus cereus [7] was 200 µg/mL (≈ 701 µM) in each case.

Turning to `O=C(N[C@H](CO)[C@H](O)c1ccc([N+](=O)[O-])cc1)C(Cl)Cl` [CHLORAMPHENICOL], the Inhibition in the assay on Bacillus cereus [2] is recorded as 8 mm. Besides, the MIC against Bacillus cereus [7] is 3.13 µg/mL (≈ 9.69 µM).

Usually MIC stands for the lowest concentration found to suppress growth.

The record behind these values is ChEMBL document CHEMBL1138653, “Screening of antimicrobial activity of diarylamines in the 2,3,5-trimethylbenzo[b]thiophene series: a structure-activity evaluation study” (2004).
